Laboratory results: patent US12378211B2, “Carbonic anhydrase inhibitors and antibiotics against multidrug resistant bacteria” (Purdue Research Foundation, priority 2018, dated 2025)
≈ marks a conversion by molar mass, not a printed value. Where two headings read alike, the source gives them in different places.

Key:
[1] = system: Mutant-12 of Enterococcus fecalis NR 31975; test: microbe, parasite or virus in culture; format: cell-based; settings: Enterococcus
[2] = system: Mutant-11 of Enterococcus fecalis NR 31975; test: microbe, parasite or virus in culture; format: cell-based; settings: Enterococcus
[3] = system: Mutant-6 of Enterococcus fecalis NR 31975; test: microbe, parasite or virus in culture; format: cell-based; settings: Enterococcus
[4] = system: Mutant-8 of Enterococcus fecalis NR 31975; test: microbe, parasite or virus in culture; format: cell-based; settings: Enterococcus
[5] = system: Mutant-15 of Enterococcus fecalis NR 31975; test: microbe, parasite or virus in culture; format: cell-based; settings: Enterococcus
[6] = system: Lactobacillus casei ATCC 334; test: MIC against human normal gut microbiota; format: cell-based; settings: Lacticaseibacillus casei, ATCC334; MRS broth, 5% CO2, 48 hours; read-out: MIC
Summary of the method: (§1)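 Compounds were serially diluted against ~5×10^5 CFU/ml inocula for 48 h at 37° C. Bacteroides and Bifidobacterium were tested in BHIS broth anaerobically, Lactobacillus in MRS broth under 5% CO2.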

[7] = system: Bifidobacterium longum subsp. Longum—44B HM 845; test: MIC against human normal gut microbiota; format: cell-based; settings: Bifidobacterium longum; BHIS broth, anaerobic, 48 hours; read-out: MIC
Summary of the method: as §1

[8] = system: Bifidobacterium breve—JCP7499 HIM 1120; test: MIC against human normal gut microbiota; format: cell-based; settings: Bifidobacterium; BHIS broth, anaerobic, 48 hours; read-out: MIC
Summary of the method: as §1

[9] = system: Bacteroides fragilis—CL07T00C01 HIM-709; test: MIC against human normal gut microbiota; format: cell-based; settings: Bacteroides; BHIS broth, anaerobic, 48 hours; read-out: MIC
Summary of the method: as §1

[10] = system: Mutant-13 of Enterococcus fecalis NR 31975; test: microbe, parasite or virus in culture; format: cell-based; settings: Enterococcus
[11] = system: MRSA NRS 384 (MRSA USA300); test: MIC against Staphylococci, broth microdilution; format: cell-based, Staphylococcus aureus; settings: Staphylococcus aureus; TSB; read-out: MIC
Summary of the method: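 CLSI broth microdilution in tryptone soy broth, inoculum about 5×10^5 CFU/mL from overnight agar cultures at 0.5 McFarland, with serially diluted compound. Plates were incubated aerobically at 37° C for 18-20 h. MIC was the lowest concentration with no visible growth.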

[12] = system: Mutant-5 of Enterococcus fecalis NR 31975; test: microbe, parasite or virus in culture; format: cell-based; settings: Enterococcus
[13] = system: Mutant-14 of Enterococcus fecalis NR 31975; test: microbe, parasite or virus in culture; format: cell-based; settings: Enterococcus
[14] = system: Mutant-4 of Enterococcus fecalis NR 31975; test: microbe, parasite or virus in culture; format: cell-based; settings: Enterococcus
[15] = system: Enterococcus faecium Patient #2-1-NR-31909; test: MIC, broth microdilution in TSB; format: cell-based; settings: Enterococcus faecium, TSB
Summary of the method: (§2)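 Enterococci are cultured overnight on tryptone soya agar at 37° C under air. A 0.5 McFarland suspension is diluted in broth to about 5×10^5 CFU/mL and exposed to serially diluted compounds.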

[16] = system: Enterococcus fecalis Strain SF 28073-NR31972; test: MIC, broth microdilution in TSB; format: cell-based; settings: Enterococcus, TSB
Summary of the method: as §2

[17] = system: Enterococcus fecalis Strain SF24413 NR31971; test: MIC, broth microdilution in TSB; format: cell-based; settings: Enterococcus, TSB
Summary of the method: as §2

[18] = system: Enterococcus faecium Patient #3-1 NR-31912; test: MIC, broth microdilution in TSB; format: cell-based; settings: Enterococcus faecium, TSB
Summary of the method: as §2

[19] = system: Enterococcus faecium E417-HM-965; test: MIC, broth microdilution in TSB; format: cell-based; settings: Enterococcus faecium, E417HM965, TSB
Summary of the method: as §2

[20] = system: Enterococcus faecalis—S613 HM-334; test: MIC, broth microdilution in TSB; format: cell-based; settings: Enterococcus, TSB
Summary of the method: as §2

[21] = system: Enterococcus fecalis Strain MMH594-NR31975; test: MIC, broth microdilution in TSB; format: cell-based; settings: Enterococcus, TSB
Summary of the method: as §2

[22] = system: Enterococcus fecalis Strain SF 24397 NR31970; test: MIC, broth microdilution in TSB; format: cell-based; settings: Enterococcus, TSB
Summary of the method: as §2

[23] = system: Mutant-7 of Enterococcus fecalis NR 31975; test: microbe, parasite or virus in culture; format: cell-based; settings: Enterococcus
[24] = system: Mutant-9 of Enterococcus fecalis NR 31975; test: microbe, parasite or virus in culture; format: cell-based; settings: Enterococcus
[25] = system: Mutant-2 of Enterococcus fecalis NR 31975; test: microbe, parasite or virus in culture; format: cell-based; settings: Enterococcus

SMILES	MIC [6] [µg/mL]	MIC [7] [µg/mL]	MIC [8] [µg/mL]	MIC [9] [µg/mL]	MIC [11] [µg/mL]	MIC ([15]; Table 1, read-out: MIC) [µg/mL]	MIC ([15]; Table 7, read-out: MIC in TSB) [µg/mL]	MIC ([16]; Table 1, read-out: MIC) [µg/mL]	MIC ([16]; Table 7, read-out: MIC in TSB) [µg/mL]	MIC ([17]; Table 1, read-out: MIC) [µg/mL]	MIC ([17]; Table 7, read-out: MIC in TSB) [µg/mL]	MIC ([18]; Table 1, read-out: MIC) [µg/mL]	MIC ([18]; Table 7, read-out: MIC in TSB) [µg/mL]	MIC ([19]; Table 1, read-out: MIC) [µg/mL]	MIC ([19]; Table 7, read-out: MIC in TSB) [µg/mL]	MIC ([20]; Table 1, read-out: MIC) [µg/mL]	MIC ([20]; Table 7, read-out: MIC in TSB) [µg/mL]	MIC ([21]; Table 1, read-out: MIC) [µg/mL]	MIC ([21]; Table 7, read-out: MIC in TSB) [µg/mL]	MIC ([22]; Table 1, read-out: MIC) [µg/mL]	also measured
CC(=O)Nc1nnc(S(N)(=O)=O)s1 [Acetazolamide, reference compound]	> 64	> 64	> 64	> 64	> 64	2 (≈ 9 µM)	2 (≈ 9 µM)	4 (≈ 18 µM)	4 (≈ 18 µM)	4 (≈ 18 µM)	4 (≈ 18 µM)	2 (≈ 9 µM)	2 (≈ 9 µM)	2 (≈ 9 µM)	2 (≈ 9 µM)	2 (≈ 9 µM)	2 (≈ 9 µM)	4 (≈ 18 µM)	4 (≈ 18 µM)	2 (≈ 9 µM)	MIC [1]: 32 µg/mL (≈ 144 µM); MIC [2]: 16 µg/mL (≈ 72 µM); MIC [3]: 32 µg/mL (≈ 144 µM); MIC [4]: 32 µg/mL (≈ 144 µM); MIC [5]: 32 µg/mL (≈ 144 µM); MIC [10]: 32 µg/mL (≈ 144 µM); MIC [12]: 32 µg/mL (≈ 144 µM); MIC [13]: 32 µg/mL (≈ 144 µM); MIC [14]: 32 µg/mL (≈ 144 µM); MIC ([22]; Table 7, read-out: MIC in TSB): 2 µg/mL (≈ 9 µM); MIC [23]: 16 µg/mL (≈ 72 µM); MIC [24]: 16 µg/mL (≈ 72 µM); MIC [25]: 16 µg/mL (≈ 72 µM)
CC(C)(C)C(=O)Nc1nnc(S(N)(=O)=O)s1 [CAI0010, N-(5-Sulfamoyl-1,3,4-thiadiazol-2-yl) pivalamide]	> 64	> 64	> 64	> 64	> 64	0.5 (≈ 1.89 µM)	0.125 (≈ 0.473 µM)	0.5 (≈ 1.89 µM)	0.5 (≈ 1.89 µM)	0.5 (≈ 1.89 µM)	0.25 (≈ 0.946 µM)	1 (≈ 3.78 µM)	0.25 (≈ 0.946 µM)	0.5 (≈ 1.89 µM)	0.25 (≈ 0.946 µM)	0.5 (≈ 1.89 µM)	0.125 (≈ 0.473 µM)	1 (≈ 3.78 µM)	0.25 (≈ 0.946 µM)	0.5 (≈ 1.89 µM)	MIC [1]: 8 µg/mL (≈ 30.3 µM); MIC [2]: 4 µg/mL (≈ 15.1 µM); MIC [3]: 16 µg/mL (≈ 60.5 µM); MIC [4]: 8 µg/mL (≈ 30.3 µM); MIC [5]: 4 µg/mL (≈ 15.1 µM); MIC [10]: 4 µg/mL (≈ 15.1 µM); MIC [12]: 4 µg/mL (≈ 15.1 µM); MIC [13]: 4 µg/mL (≈ 15.1 µM); MIC [14]: 8 µg/mL (≈ 30.3 µM); MIC ([22]; Table 7, read-out: MIC in TSB): 0.25 µg/mL (≈ 0.946 µM); MIC [23]: 4 µg/mL (≈ 15.1 µM); MIC [24]: 8 µg/mL (≈ 30.3 µM); MIC [25]: 8 µg/mL (≈ 30.3 µM)
CC(C)C(=O)Nc1nnc(S(N)(=O)=O)s1 [CAI0011, N-(5-Sulfamoyl-1,3,4-thiadiazol-2-yl) isobutyramide]	> 64	> 64	> 64	> 64	> 64	1 (≈ 4 µM)	1 (≈ 4 µM)	2 (≈ 7.99 µM)	2 (≈ 7.99 µM)	2 (≈ 7.99 µM)	2 (≈ 7.99 µM)	1 (≈ 4 µM)	1 (≈ 4 µM)	1 (≈ 4 µM)	1 (≈ 4 µM)	2 (≈ 7.99 µM)	2 (≈ 7.99 µM)	2 (≈ 7.99 µM)	2 (≈ 7.99 µM)	2 (≈ 7.99 µM)	MIC ([22]; Table 7, read-out: MIC in TSB): 2 µg/mL (≈ 7.99 µM)
